system: not listed separately; experiment: Bidirectional transport study with assay-ready Caco-2 cells, 7-day versus 21-day cultivation (Figure S2); conditions: human, Caco-2, pH 7.4

| SMILES | efflux ratio at 60 min |
| --- | --- |
| CN/C(=N/CCSCc1nc[nH]c1C)NC#N [Cimetidine] | > 2 |
| COc1cc2nc(N3CCN(C(=O)c4ccco4)CC3)nc(N)c2cc1OC [Prazosin] | > 2 |
| O=C(O)c1cc(/N=N/c2ccc(S(=O)(=O)Nc3ccccn3)cc2)ccc1O [Sulfasalazine] | > 2 |

system: Caco-2 cells; experiment: as above; conditions: Caco-2 cells maintained 7 days on transwell plates; ER = Papp,BA/Papp,AB

| SMILES | efflux ratio (ER) |
| --- | --- |
| C[C@]12CC[C@@H]3c4ccc(OS(=O)(=O)O)cc4CC[C@H]3[C@@H]1CCC2=O [Compound E3S, estrone-3-sulfate] | > 2 |

same assay, conditions: Caco-2 cells maintained 21 days on transwell plates; ER = Papp,BA/Papp,AB

| SMILES | efflux ratio (ER) |
| --- | --- |
| CN/C(=N/CCSCc1nc[nH]c1C)NC#N [Cimetidine] | > 2 |
| C[C@]12CC[C@@H]3c4ccc(OS(=O)(=O)O)cc4CC[C@H]3[C@@H]1CCC2=O [Compound E3S, estrone-3-sulfate] | > 2 |
| COc1cc2nc(N3CCN(C(=O)c4ccco4)CC3)nc(N)c2cc1OC [Prazosin] | > 2 |
| O=C(O)c1cc(/N=N/c2ccc(S(=O)(=O)Nc3ccccn3)cc2)ccc1O [Sulfasalazine] | > 2 |

system: not given; experiment: not given; conditions: human fraction absorbed; rounded to two significant figures; ref [17]; cited from earlier work

| SMILES | Observed Human fa |
| --- | --- |
| N=C(N)NC(=O)c1nc(Cl)c(N)nc1N [Amiloride] | 0.53 |
| CC(C)CN(C[C@@H](O)[C@H](Cc1ccccc1)NC(=O)O[C@H]1CCOC1)S(=O)(=O)c1ccc(N)cc1 [Amprenavir] | 0.76 |
| Cc1cc(=O)n(-c2ccccc2)n1C [Antipyrine] | 0.98 |
| CC[C@H]1OC(=O)[C@H](C)[C@@H](O[C@H]2C[C@@](C)(OC)[C@@H](O)[C@H](C)O2)[C@H](C)[C@@H](O[C@@H]2O[C@H](C)C[C@H](N(C)C)[C@H]2O)[C@](C)(O)C[C@@H](C)CN(C)[C@H](C)[C@@H](O)[C@]1(C)O [Azithromycin] | 0.43 |
| CC(C)(C)NC(=O)N[C@H](C(=O)N1C[C@H]2[C@@H]([C@H]1C(=O)NC(CC1CCC1)C(=O)C(N)=O)C2(C)C)C(C)(C)C (stereo partly shown) [Boceprevir] | 0.92 |
| COc1ccccc1Oc1c(NS(=O)(=O)c2ccc(C(C)(C)C)cc2)nc(-c2ncccn2)nc1OCCO [Bosentan] | 0.70 |
| O=C(O)COCCN1CCN(C(c2ccccc2)c2ccc(Cl)cc2)CC1 (stereo not shown) [Cetirizine] | 0.73 |
| C[C@]12C[C@H](O)[C@H]3[C@@H](CCC4=CC(=O)CC[C@@]43C)[C@@H]1CC[C@@H]2C(=O)CO [Corticosterone] | 1.0 |
| O=C(O)Cc1ccccc1Nc1c(Cl)cccc1Cl [Diclofenac] | 0.97 |
| OCCN(CCO)c1nc(N2CCCCC2)c2nc(N(CCO)CCO)nc(N3CCCCC3)c2n1 [Dipyridamole] | 0.56 |
| CN(C)CCC=C1c2ccccc2COc2ccccc21 [Doxepin] | 0.76 |
| NS(=O)(=O)c1cc(C(=O)O)c(NCc2ccco2)cc1Cl [Furosemide] | 0.61 |
| COc1ccc2c(c1)C(=O)N(CCc1ccc(S(=O)(=O)NC(=O)NC3CCCCC3)cc1)C(=O)C2(C)C [Gliquidone] | 0.95 |
| CCN(CCO)CCCC(C)Nc1ccnc2cc(Cl)ccc12 (stereo not shown) [Hydroxychloroquine] | 0.90 |
| CC(C)(C)NC(=O)[C@@H]1CN(Cc2cccnc2)CCN1C[C@@H](O)C[C@@H](Cc1ccccc1)C(=O)N[C@H]1c2ccccc2C[C@H]1O [Indinavir] | 0.63 |
| CC(=O)N1CCN(c2ccc(OCC3COC(Cn4ccnc4)(c4ccc(Cl)cc4Cl)O3)cc2)CC1 (stereo not shown) [Ketoconazole] | 0.76 |
| Nc1nnc(-c2cccc(Cl)c2Cl)c(N)n1 [Lamotrigine] | 0.98 |
| Nc1cccc2c1CN(C1CCC(=O)NC1=O)C2=O (stereo not shown) [Lenalidomide] | 0.90 |
| CCOC(=O)N1CCC(=C2c3ccc(Cl)cc3CCc3cccnc32)CC1 [Loratadine] | 0.90 |
| CN(Cc1cnc2nc(N)nc(N)c2n1)c1ccc(C(=O)N[C@@H](CCC(=O)O)C(=O)O)cc1 [Methotrexate] | 0.64 |
| CCN(CC)CCNC(=O)c1cc(Cl)c(N)cc1OC [Metoclopramide] | 0.89 |
| Cc1cccc(C)c1OCC(C)N (stereo not shown) [Mexiletine] | 0.99 |
| O=C(NCCN1CCOCC1)c1ccc(Cl)cc1 [Moclobemide] | 0.85 |
| CNS(=O)(=O)CCc1ccc2[nH]cc(C3CCN(C)CC3)c2c1 [Naratriptan] | 0.70 |

| SMILES | Observed Human fa |
| --- | --- |
| CN1CCC[C@H]1c1cccnc1 [Nicotine] | 1.0 |
| COCCOC(=O)C1=C(C)NC(C)=C(C(=O)OC(C)C)C1c1cccc([N+](=O)[O-])c1 (stereo not shown) [Nimodipine] | 1.0 |
| CNCCC=C1c2ccccc2CCc2ccccc21 [Nortriptyline] | 1.0 |
| Cc1nccn1CC1CCc2c(c3ccccc3n2C)C1=O (stereo not shown) [Ondansetron] | 1.0 |
| CCOC(=O)C1=C[C@@H](OC(CC)CC)[C@H](NC(C)=O)[C@@H](N)C1 [Oseltamivir] | 0.75 |
| Nc1ccc(/N=N/c2ccccc2)c(N)n1 [Phenazopyridine] | 0.90 |
| O=C1NC(=O)C(c2ccccc2)(c2ccccc2)N1 [Phenytoin] | 0.93 |
| CNC(=O)Oc1ccc2c(c1)[C@]1(C)CCN(C)[C@@H]1N2C [Physostigmine] | 0.050 |
| CNC(=C[N+](=O)[O-])NCCSCc1ccc(CN(C)C)o1 [Ranitidine] | 0.56 |
| CO[C@H]1/C=C/O[C@@]2(C)Oc3c(C)c(O)c4c(c3C2=O)C2=NC3(CCN(CC(C)C)CC3)NC2=C(NC(=O)/C(C)=C\C=C\[C@H](C)[C@H](O)[C@@H](C)[C@@H](O)[C@@H](C)[C@H](OC(C)=O)[C@@H]1C)C4=O [Rifabutin] | 0.53 |
| CN(C)CCc1c[nH]c2ccc(Cn3cncn3)cc12 [Rizatriptan] | 0.90 |
| CN(CCOc1ccc(CC2SC(=O)NC2=O)cc1)c1ccccn1 (stereo not shown) [Rosiglitazone] | 1.0 |
| CC(C)c1nc(N(C)S(C)(=O)=O)nc(-c2ccc(F)cc2)c1/C=C/[C@@H](O)C[C@@H](O)CC(=O)O [Rosuvastatin] | 0.35 |
| CC[C@H]1OC(=O)[C@H](C)[C@@H](O[C@H]2C[C@@](C)(OC)[C@@H](O)[C@H](C)O2)[C@H](C)[C@@H](O[C@@H]2O[C@H](C)C[C@H](N(C)C)[C@H]2O)[C@](C)(O)C[C@@H](C)/C(=N\OCOCCOC)[C@H](C)[C@@H](O)[C@]1(C)O [Roxithromycin] | 0.86 |
| C#CCN(C)[C@H](C)Cc1ccccc1 [Selegiline] | 1.0 |
| O=C(O)c1cc(/N=N/c2ccc(S(=O)(=O)Nc3ccccn3)cc2)ccc1O [Sulfasalazine] | 0.33 |
| CNS(=O)(=O)Cc1ccc2[nH]cc(CCN(C)C)c2c1 [Sumatriptan] | 0.58 |
| CCCc1nc2c(C)cc(-c3nc4ccccc4n3C)cc2n1Cc1ccc(-c2ccccc2C(=O)O)cc1 [Telmisartan] | 0.82 |
| O=c1n(CCCN2CCN(c3cccc(Cl)c3)CC2)nc2ccccn12 [Trazodone] | 0.98 |
| OC(CCN1CCCCC1)(c1ccccc1)C1CCCCC1 (stereo not shown) [Trihexyphenidyl] | 1.0 |
| COc1ccc(C(CN(C)C)C2(O)CCCCC2)cc1 (stereo not shown) [Venlafaxine] | 0.96 |
| O=C1Cc2cc(CCN3CCN(c4nsc5ccccc45)CC3)c(Cl)cc2N1 [Ziprasidone] | 0.63 |
| CN(C)CCc1c[nH]c2ccc(C[C@H]3COC(=O)N3)cc12 [Zolmitriptan] | 0.92 |

Source: paper PMC11280027, “Conquering the beyond Rule of Five Space with an Optimized High-Throughput Caco-2 Assay to Close Gaps in Absorption Prediction” (Pharmaceutics, 2024)
